What was measured:
[1] = in vivo; cited from earlier work
[2] = test system: younger subject two; test: Trial: small amounts of amantadine with creatine, with or without a PDE5 inhibitor ED drug; type: in vivo, human; details: for Results in conjugal sexual activity: ED drugs in low doses over the past four years; for Effectiveness of small dose of the PDE5 inhibitor ED drug alone: VIAGRA about 12.5 mg or LEVITRA about 2.5 mg, normally
Experimental: In a trial, the younger subject two ingested small amounts of amantadine along with about 88 mg of creatine. The small amounts of amantadine were measured by opening a capsule of amantadine and pouring out small amounts. Ten individual administrations used less than one 100 mg capsule of amantadine. Thus, the dose of amantadine was approximately 5 mg to approximately 10 mg.
The subject noted a body weight that varied little from about 78 kg over the past twenty plus years. The subject noted no use of blood pressure or other prescribed medications on a regular basis.

[3] = test system: younger subject one; test: Observation of the younger subject on lycopene-containing foods; type: in vivo, human; details: on occasion, for one day at a time
Text: Other exemplary compositions may include lycopene. […] Lycopene is present in tomato products while other foods of interest include certain beans and blue berries. An exemplary method includes administering such a composition. For example, a composition that includes creatine and lycopene may be administered to a subject to treat a urologic disorder. An exemplary method includes administering creatine and lyocpene to treat a urologic disorder.

[4] = test system: patients; details: in vivo; cited from earlier work
[5] = test system: younger subject two; test: Trial: occasional amantadine for flu prophylaxis, nocturnal urinary symptoms; type: in vivo, human; details: occasional administration of about 100 mg
Experimental: A trial involving the younger subject two involved occasional administration of about 100 mg of amantadine for flu prophylaxis.

[6] = test system: two male subjects with urinary symptoms; test: Additional trials: creatine monohydrate in solution, loading phase and maintenance phase; type: in vivo, human
Experimental: […] […] […] The post-loading phase is referred to herein as a maintenance phase. The dose may vary during the maintenance phase; however, it is generally at least 50% less than the dose used in a loading phase.
In these trials, urinary flow-related symptoms were reduced.
However, in various trials, a delay in relief was experienced that corresponded to the dose size where a larger than required dose would actually delay relief (e.g. beyond 24 hours to as much as 72 hours). […] Such trials indicate that a dosage range exists for relief of symptoms and for timing of the relief.

[7] = test system: subject one with nocturia and diagnosed moderate prostate enlargement; test: Trial: single dose of creatine monohydrate powder in solution prior to sleep; type: in vivo, human; details: person two
Experimental: A trial provided creatine monohydrate as a powder (about 100% creatine monohydrate) and administered a single dose (approximately 0.1 to 0.2 g) of the creatine monohydrate powder in a solution (about 0.09 to 0.17 g creatine) approximately 0.5 to 3 hours prior to sleep. Urinary flow-related symptoms were reduced for the immediate sleep period and for sleep periods during the following 48 hours.
The subject weighed approximately 80 kg (about 175 lbs). Thus, the dosage was about 0.9 mg of creatine per kg of body weight. Range may vary by individual and prior consumption of a creatine compound. A general range for CSUE may be from about 0.4 mg creatine monohydrate to about 4.0 mg creatine monohydrate per kg body weight per day (e.g., about 32 mg to about 320 mg per day for a subject weighing about 80 kg). As already mentioned, the various trials used creatine monohydrate powder (about 100%) in solution. Thus, in terms of creatine content, the general range for CSUE may be from about 0.35 mg creatine per kg body weight per day (e.g., about 0.4*(3.124.4/5) mg) to about 3.5 mg creatine per kg body weight per day (e.g., 4.0*(3.124.4/5) mg). While dose may vary from patient to patient, the dose is typically less than the dose for CSR.

[8] = test system: varsity football and track athletes; details: 3 g per day without prior loading; cited from earlier work
[9] = single dose approx 0.1 to 0.2 g in solution prior to sleep

For `C[C@]12CC[C@H](OS(=O)(=O)O)CC1=CC[C@@H]1[C@@H]2CC[C@]2(C)C(=O)CC[C@@H]12` [DHEA-S, DHEA-sulfate], the “Levels of testosterone and androstenedione” value [1] is given as “increased levels”.

For `CCCc1nc(C)c2c(=O)nc(-c3cc(S(=O)(=O)N4CCN(CC)CC4)ccc3OCC)[nH]n12` [LEVITRA®, 4-[2-ethoxy-5-(4-ethylpiperazin-1-yl)sulfonyl-phenyl]-9-methyl-7-propyl-3,5,6,8-tetrazabicyclo[4.3.0]nona-3,7,9-trien-2-one], the “Results in conjugal sexual activity” value [2] was “good results” and the “Effectiveness of small dose of the PDE5 inhibitor ED drug alone” value [2] was “somewhat marginally effective”.

In the case of `CC(C)=CCC/C(C)=C/C=C/C(C)=C/C=C/C(C)=C/C=C/C=C(C)/C=C/C=C(C)/C=C/C=C(\C)CCC=C(C)C` [Lycopene, lycopene], the “Nocturnal urine stream slowing” value [3] is reported as “a lack of nocturnal urine stream slowing”.

In the case of `CC12CC3CC(C)(C1)CC(N)(C3)C2` [Memantine, 1-amino-3,5-dimethyl-adamantane], the Tolerability [4] is listed as “generally well-tolerated”.

For `CCCc1nn(C)c2c(=O)[nH]c(-c3cc(S(=O)(=O)N4CCN(C)CC4)ccc3OCC)nc12.O=C(O)CC(O)(CC(=O)O)C(=O)O` [VIAGRA®, 1-[4-ethoxy-3-(6,7-dihydro-1-methyl-7-oxo-3-propyl-1H-pyrazolo[4,3-d]pyrimidin-5-yl)phenylsulfonyl]-4-methylpiperazine citrate], the “Results in conjugal sexual activity” value [2] was “good results” and the “Effectiveness of small dose of the PDE5 inhibitor ED drug alone” value [2] was “somewhat marginally effective”.

With `NC12CC3CC(CC(C3)C1)C2` [amantadine, adamantan-1-amine] the “Effect compared with DHEA taken to enhance libido (readiness for and enjoyment of orgasm)” value ([2]; about 5 mg of amantadine) was “similarly beneficial but distinct effect”, the “Effect relative to that of the PDE5 inhibitor ED drugs” value ([2]; subject's observation) was “additive” and the Nocturnal urinary symptoms [5] was “reduction in nocturnal urinary symptoms”.

In the case of `CN(CC(=O)O)C(=N)N.O` [creatine monohydrate], the “Symptoms (urinary)” value ([6]; both subjects, loading phase 0.1 to 1.0 g, then maintenance about 50 to 150 mg every other day) is reported as “symptoms were relieved”, the “Initiation of urine stream at night” value ([6]; doses larger than about 0.25 g in the maintenance phase, younger subject) is reported as “more difficult until 24 hours to 48 hours later” and the Urinary symptom reduction ([6]; doses of greater than 1 g after the loading phase, both subjects) is reported as “less urinary symptom reduction”. The Urinary flow-related symptoms ([7]; single dose approx 0.1 to 0.2 g in solution 0.5 to 3 hours prior to sleep, immediate sleep period and sleep periods of following 48 hours) was “reduced”, the Nocturnal erections [7, 9] was “increase in nocturnal erections” and the “Testicular blood flow as evidenced by palpable scrotal content enlargement” value [7, 9] was “increase in testicular blood flow”. The Ergogenic effect [8] was “did not observe ergogenic effect”.

From patent US8513306B2, “Enhancement of urogenital function” (priority 2005, dated 2013)
